Experimental findings from patent publication US4977151A, “Ethanone oximes and pharmaceutical compositions thereof” (Mitsubishi Kasei Corporation, priority 1987, dated 1990) are described below.

Counter-ions that a name gives are not always drawn.

The first assay relates to stress-induced gastric ulcer. In words: Anti-stress ulcer test: inhibition of stress-induced gastric ulcer in rats. In kind it is in vivo, rat (Douryu male rats). Conditions: Rattus norvegicus, po, 15 h, read-out: Inhibition Rate of Stress-Induced Ulcer (%). The protocol:
Anti-stress ulcer tests were conducted as described below. Douryu non-fasted male rats (Shizuoka Laboratory Animal Center, body weight: 220-250 g), five in each group, were immobilized within a stress cage made of wire net and immersed in a water bath at 22 ±1° C. to a depth of xiphoid for loading them with stresses. The rats were clubbed to death after 15 hours and their stomachs were extirpated. After injecting about 15 ml of an aqueous 1% formalin solution into each of the stomachs, they were immersed in an aqueous 1 % formalin solution for about 10 minutes and fixed. After fixation, the stomachs were incised along the greater curvature. The longer diameter of each ulcer generated in the glandular portion was measured under stereomicroscope (X10) and the sum of them was defined to be an ulcer coefficient (mm). Chemicals to be tested were suspended in an aqueous 1 % gum arabic solution and orally administrated at a dose of 2 ml/kg, 30 min before the stress loading. For the control group, an aqueous 1 % gum arabic solution only was administrated, and their ulcer coefficient was compared to that of the group administrated with the tested chemicals to calculate the suppression rate of the tested chemicals. The dosage was 50 mg/kg for each of the compounds. The test compounds in the table are identified in corresponding Examples hereinafter described.
On to `CN=C(NC#N)NCCSCc1nc[nH]c1C` [Cimethidine, reference compound], for which the inhibition in vivo at 200 mg/kg is 69.7%.

The same assay, now with this note: Rattus norvegicus; 50 mg/kg, oral, 30 min before stress loading; water immersion stress 22 ±1° C., 15 hours; vs control group; read-out: Inhibition Rate of Stress-Induced Ulcer (%).
For `CN1CCN(C/C(=N\O)c2ccc(Sc3ccccc3)cc2)CC1` [Example 1, (Z)-2-(4-methyl-piperazin-1-yl)-1-(4-phenylthio-phenyl)-ethanone oxime hydrochloride], the inhibition in vivo at 50 mg/kg stood at 76.9%. As to `CN1CCN(C/C(=N\O)c2ccc(C3CCCCC3)cc2)CC1` [Example 3, (Z)-2-(4-methylpiperazin-1-yl)-1-(4-cyclohexyl-phenyl)-ethanone oxime], the inhibition in vivo at 50 mg/kg was determined as 59.7%. With `CN1CCN(C/C(=N\O)c2ccc(Cc3ccccc3)cc2)CC1` [Example 5, (Z)-2-(4-methylpiperazin-1-yl)-1-(4-benzyl-phenyl)-ethanone oxime], the inhibition in vivo at 50 mg/kg was 100%. In the case of `CC(=O)N(c1ccccc1)c1ccc(/C(CN2CCN(C)CC2)=N/O)cc1` [Example 6, (Z)-2-(4-methylpiperazin-1-yl)-1-(4-(N-acetyl-N-phenylamino)-phenyl)-ethanone oxime], the inhibition in vivo at 50 mg/kg came to 85.7%. On to `CN1CCN(C/C(=N\O)c2ccc(N(c3ccccc3)c3ccccc3)cc2)CC1` [Example 7, (Z)-2-(4-methylpiperazin-1-yl)-1-(4-diphenylamino-phenyl)-ethanone oxime], for which the inhibition in vivo at 50 mg/kg came to 74.6%.

Take `CN1CCN(C/C(=N\O)c2ccc(CCc3ccccc3)cc2)CC1` [Example 8, (Z)-2-(4-methylpiperazin-1-yl)-1-(4-(2-phenylethyl)-phenyl)-ethanone oxime]: the inhibition in vivo at 50 mg/kg amounted to 65.7%.

In the case of `O/N=C(\CN1CCCCC1)c1ccc(CCc2ccccc2)cc1` [Example 11, (Z)-2-(piperidin-1-yl)-1-(4-(2-phenylethyl)-phenyl)-ethanone oxime], the inhibition in vivo at 50 mg/kg stood at 53%. The same measure, in the same setting: in the case of `CC(=O)N1c2ccccc2Sc2ccc(/C(CN3CCCCC3)=N/O)cc21` [Example 13] it was 100%. Take `CN1CCN(C/C(=N\O)c2ccc3c(c2)Sc2ccccc2S3)CC1` [Example 14]: the inhibition in vivo at 50 mg/kg turned out to be 51.9%. Take `CC1c2ccccc2CCc2ccc(/C(CN3CCN(C)CC3)=N/O)cc21` (centres unmarked) [Example 18, (Z)-2-(4-methylpiperazin-1-yl)-1-(10,11-dihydro-5H-5-methyldibenzo[a,b]cyclohepten-3-yl)-ethanone oxime]: the inhibition in vivo at 50 mg/kg was 100%. Turning to `CCC1c2ccccc2CCc2ccc(/C(CN3CCN(C)CC3)=N/O)cc21` (centres unmarked) [Example 19, (Z)-2-(4-methylpiperazin-1-yl)-1-(10,11-dihydro-5H-5-ethyldibenzo[a,b]cyclohepten-3-yl)-ethanone oxime], the inhibition in vivo at 50 mg/kg is 90.7%. With `CN1CCN(C/C(=N\O)c2ccc(S(=O)(=O)c3ccccc3)cc2)CC1` [Example 20, (Z)-2-(4-methylpiperazin-1-yl)-1-(4-phenylsulfonyl-phenyl)-ethanone oxime], the inhibition in vivo at 50 mg/kg was determined as 80.3%.

Take `CN1CCN(C/C(=N\O)c2ccc3c(c2)Nc2ccccc2S3)CC1` [Example 22, (Z)-2-(4-methylpiperazin-1-yl)-1-(4-phenothiazin-2-yl)-ethanone oxime]: the inhibition in vivo at 50 mg/kg came to 50.6%. The same measure, in the same setting: in the case of `CN1CCN(C/C(=N\O)c2ccc(-n3ccnc3)cc2)CC1` [Example 23, (Z)-2-(4-methylpiperazin-1-yl)-1-(4-(imidazol-1-yl)phenyl)-ethanone oxime] it was 50.5%; in that of `O/N=C(\CN1CCCCC1)c1ccc(-n2ccnc2)cc1` [Example 24, (Z)-2-(piperidin-1-yl)-1-(4-(imidazol-1-yl)-phenyl)-ethanone oxime], 41.5%; in that of `CN1CCN(C/C(=N\O)c2ccc(NS(=O)(=O)c3ccccc3)cc2)CC1` [Example 31, (Z)-2-(4-methylpiperazin-1-yl)-1-(4-benzenesulfonyl-amino-phenyl)-ethanone oxime], 48.4%. The same measure, in the same setting: in the case of `CN1CCN(C/C(=N\O)c2ccc(OCc3ccccc3)cc2)CC1` [Example 33, (Z)-2-(4-methyl-piperazin-1-yl)-1-(4-benzyloxy-phenyl)-ethanone oxime hydrochloride] it was 41.4%; in that of `CCOc1cc(CCc2ccccc2)ccc1/C(CN1CCN(C)CC1)=N/O` [Example 34, (Z)-2-(4-methylpiperazin-1-yl)-1-(2-ethoxy-4-(2-phenylethyl)-phenyl)-ethanone oxime hydrochloride], 100%; in that of `CC(C)Oc1ccccc1CCc1ccc(/C(CN2CCN(C)CC2)=N/O)cc1` [Example 40, (Z)-2-(4-methylpiperazin-1-yl)-1-(4-(2-(2-isopropoxy-phenyl)-ethyl)-phenyl)-ethanone oxime], 41.9%.
